# Literature values in US20200330542A1, “COMPOSITION FOR THE ACUTE AND CHRONIC TREATMENT OF CONSTIPATION” (NEILOS S.R.L., priority 2017, published 2020).
# Settings: human, in vivo
substance,measurement,value
glucomannan,tolerability,well tolerated without significant side effects
